For orientation: zone of inhibition means the size of the clear area around the sample on an inoculated plate.

Assay [1] deals with marine bacteria strain S1. Briefly: disc inhibition assay, strain S1. As to conditions: strain 1, 50 μg of compound per disc. Format: cell-based, Rhodovulum iodosum. How it is done:
(§1) The disc inhibition assay was used. This assay is a conventional method routinely used for screening antibacterial compounds to determine degree of susceptibility to antibacterial compounds. The diameter of the zone of inhibition is proportional to the degree of susceptibility of the bacterial strain. The compounds were tested against 13 strains of marine bacteria isolated from Singapore coastal waters.
(§2) 13 strains of marine bacteria were isolated from fouling communities located in the coastal waters around Singapore. These were characterized in earlier studies and reported in Teo et al. (U.S. patent application Ser. No. 11/265,833) and Choong et al (in prep). In addition, four reference bacterial strains were added tested: Escherichia coli (Strain K12, ATCC 15222), E. coli (strain DH5a), Pseudomonas aeruginosa (strain LMG 12228; ATCC 15692) and P. putida (strain KT2440; ATCC 47054). All the bacteria were also tested against five antibiotics: ampicillin (AMP), tetracycline (TETR), erythromycin (ERY), chloramphenicol (CHL) and streptomycin (STREP).
(§3) Disks comprising the compounds to be tested were prepared as follows. The antibacterial assay, the pure compounds were made up to a concentration of 2 mgml^−1 in DMSO. 25 μl of the stock was pipetted onto each 6 mm sterile disc (Macherey-Nagel #484000) to obtain 50 μg of compound per disc. Equivalent volume of DMSO was used inoculated for the control.
(§4) For all disk inhibition assays, bacterial cultures were grown in marine broth (Pronadisa #1217.00). Sterile swabs dipped into the cultures were used to inoculate Marine Agar plates with a bacterial lawn by smearing the culture over the surface. After inoculating the plates, discs with antibiotics, pharmaceuticals or control blanks were placed on each plate. Each concentration of antibiotic or pharmaceutical was tested with two replicates. After the disks were placed on the agar surface, plates were incubated overnight in the dark at 35° C. After incubation, plates were examined for zones of inhibition or clearing around control and treated disks. The diameter of any zone of clearing or inhibition was measured using Vernier calipers. There were two replicates per treatment, and the average was taken.

For assay [2], the system named is marine bacteria strain S3. Put plainly: disc inhibition assay, strain S3. As to conditions: for zone of inhibition at 50 µg/disc: Qipengyuania aquimaris, S3, 24 h. Format: cell-based, Erythrobacter aquimaris. The procedure:
as §1, §2, §3, §4

Assay [3] concerns marine bacteria strain S4. Briefly: disc inhibition assay, strain S4. Format: cell-based, Bacillus algicola. Particulars: for zone of inhibition at 50 µg/disc: Guptibacillus algicola, S4, 24 h. How it is done:
as §1, §2, §3, §4

Assay [4] concerns marine bacteria strain S9. Put plainly: disc inhibition assay, strain S9. Format: cell-based, Bacillus algicola. As to conditions: for zone of inhibition at 50 µg/disc: Guptibacillus algicola, S9, 24 h. How it is done: as §1, §2, §3, §4
Assay [5] relates to marine bacteria strain S10. Briefly: disc inhibition assay, strain S10. Format: cell-based, Halobacillus trueperi. As to conditions: for zone of inhibition at 50 µg/disc: Halobacillus trueperi, S10, 24 h. How it is done:
as §1, §2, §3, §4

In assay [6] the test system is marine bacteria strain S14. Put plainly: disc inhibition assay, strain S14. As to conditions: strain 14, 50 μg of compound per disc. Format: cell-based, Vibrio probioticus. How it is done: as §1, §2
(§5) Disks comprising the compounds to be tested were prepared as follows. The antibacterial assay, the pure compounds were made up to a concentration of 2 mgml^−1 in DMSO. […] Equivalent volume of DMSO was used inoculated for the control.
as §4

Assay [7] deals with marine bacteria strain S16. Briefly: disc inhibition assay, strain S16. Format: cell-based, Pseudoalteromonas piscicida. As to conditions: for zone of inhibition at 50 µg/disc: Pseudoalteromonas piscicida, S16, 24 h; for antibacterial activity in words: strain S16. The procedure: as §1, §2, §3, §4
The test system of assay [8] is marine bacteria strain S17. Put plainly: disc inhibition assay, strain S17. Particulars: for zone of inhibition at 50 µg/disc: Gordonia terrae, S17, 24 h. Format: cell-based, Gordonia terrae. How it is done:
as §1, §2, §3, §4

The test system of assay [9] is marine bacteria strain S18. Put plainly: disc inhibition assay, strain S18. Particulars: for zone of inhibition at 50 µg/disc: Microbacterium esteraromaticum, S18, 24 h. Format: cell-based, Microbacterium esteraromaticum. The procedure: as §1, §2, §5, §4
Assay [10] deals with marine bacteria strain S27. Briefly: disc inhibition assay, strain S27. Format: cell-based, Tenacibaculum lutimaris. Particulars: strain 27, 50 μg of compound per disc; for zone of inhibition at 50 µg/disc: Tenacibaculum lutimaris, S27, 24 h, read-out: zone of inhibition. How it is done: as §1, §2, §3, §4
In assay [11] the test system is marine bacteria strain S28. Briefly: disc inhibition assay, strain S28. Format: cell-based, Arthrobacter protophormial. As to conditions: for zone of inhibition at 50 µg/disc: Arthrobacter, S28, 24 h. The procedure:
as §1, §2, §3, §4

The subject of assay [12] is marine bacteria strain S29. Put plainly: disc inhibition assay, strain S29. Particulars: for zone of inhibition at 50 µg/disc: Guptibacillus hwajinpoensis, S29, 24 h. Format: cell-based, Bacillus hwajinpoensis. The procedure:
as §1, §2, §3, §4

In assay [13] the test system is marine bacteria strain S30. Put plainly: disc inhibition assay, strain S30. As to conditions: for zone of inhibition at 50 µg/disc: Bacillus, S30, 24 h. Format: cell-based, Bacillus borophilicus. How it is done: as §1, §2, §3, §4
Setting [14] is: strain 3, 50 μg of compound per disc.
Setting [15] is: strain 4, 50 μg of compound per disc.
Where [16] appears, read: strain 9, 50 μg of compound per disc.
Where [17] appears, read: strain 10, 50 μg of compound per disc.
The mark [18] stands for this setting: strain 16, 50 μg of compound per disc, read-out: zone of inhibition.
Where [19] appears, read: strain 17, 50 μg of compound per disc.
[20] abbreviates: strain 18, 50 μg of compound per disc.
The mark [21] stands for this setting: strain 28, 50 μg of compound per disc.
[22] abbreviates: strain 29, 50 μg of compound per disc.
The mark [23] stands for this setting: strain 30, 50 μg of compound per disc.
[24] abbreviates: strain 3, 50 μg of compound per disc, read-out: zone of inhibition.
[25] abbreviates: strain 4, 50 μg of compound per disc, read-out: zone of inhibition.
Where [26] appears, read: strain 9, 50 μg of compound per disc, read-out: zone of inhibition.
The mark [27] stands for this setting: strain 10, 50 μg of compound per disc, read-out: zone of inhibition.
Setting [28] is: strain 16, 50 μg of compound per disc.
The mark [29] stands for this setting: strain 17, 50 μg of compound per disc, read-out: zone of inhibition.
[30] abbreviates: strain 18, 50 μg of compound per disc, read-out: zone of inhibition.
[31] abbreviates: strain 29, 50 μg of compound per disc, read-out: zone of inhibition.

SMILES strings stand for the structures. Read-outs that look alike come from different tables or passages of the source.

As for `O=C(Cc1ccccc1)N1CCCCC1` [Compound 10.5], the zone of inhibition result in [1], in assay [2] (setting [14]), in assay [3] (setting [15]), in assay [4] (setting [16]), in assay [5] (setting [17]) and in assay [6] was “−” in each case. Further, the zone of inhibition entry in [8] (setting [19]), in assay [9] (setting [20]), in assay [10], in [11] (setting [21]), in [12] (setting [22]) and in assay [13] (setting [23]) was “−” each time. Moreover, in assay [7] (setting [18]), the zone of inhibition at 50 µg/disc was in the range of 5 to 10 mm.
On to `CN(C)C(=O)C(CC[N+]1(O)CCC(O)(c2ccc(Cl)cc2)CC1)(c1ccccc1)c1ccccc1` (centres unmarked) [Compound 5.1], for which the zone of inhibition entry in assay [1], in assay [3] (setting [15]), in [4] (setting [16]), in assay [5] (setting [17]), in assay [6] and in assay [9] (setting [20]) was “−” in each case. For the same compound, the zone of inhibition result in assay [10], in assay [11] (setting [21]), in [12] (setting [22]) and in assay [13] (setting [23]) was “−” each time. Besides, the zone of inhibition at 50 µg/disc in assay [2], in [7] and in assay [8] was 2 to 5 mm each time.
`C/C=C/C=C/C(=O)N1CCCCC1` [Compound 11.4]: the “antibacterial activity in words” value in [7] is given as “susceptible”.
On to `CN(C)C(=O)C(CC[N+]1(C)CCC(O)(c2ccc(Cl)cc2)CC1)(c1ccccc1)c1ccccc1` (centres unmarked) [Compound 4.7], for which the zone of inhibition result in assay [1], in assay [6] and in [10] was “−” each time. The zone of inhibition at 50 µg/disc in [2] lay in the range of 5 to 10 mm; in [3], 5 to 10 mm; in assay [4], 5 to 10 mm; in assay [5], 5 to 10 mm; in assay [7], 2 to 5 mm; in [8], 2 to 5 mm. Moreover, the zone of inhibition at 50 µg/disc in [9] is 2 to 5 mm; in assay [11] it was 5 to 10 mm; in assay [12], 5 to 10 mm; in assay [13], 2 to 5 mm.
Turning to `C=CCCCCC(CCCC)C(=O)N1CCCCC1` (centres unmarked) [Compound 12.7], the zone of inhibition at 50 µg/disc in assay [1] (Rhodovulum iodosum, S1, read-out: zone of inhibition) is 2 to 5 mm; in assay [2] (setting [24]), over 10 mm; in [3] (setting [25]), 5 to 10 mm; in [4] (setting [26]), 5 to 10 mm; in assay [5] (setting [27]) it was 5 to 10 mm; in assay [8] (setting [29]), 5 to 10 mm. The zone of inhibition at 50 µg/disc was over 10 mm in assay [9] (setting [30]); 2 to 5 mm in assay [10]; 2 to 5 mm in [11] (strain 28, 50 μg of compound per disc, read-out: zone of inhibition); 2 to 5 mm in [12] (setting [31]); 2 to 5 mm in assay [13] (strain 30, 50 μg of compound per disc, read-out: zone of inhibition). For the same compound, the zone of inhibition result in assay [6] and in assay [7] (setting [28]) was “−” each time.
`CCCCCC(=O)N(C)C` [Compound 11.2]: the zone of inhibition result in assay [1], in assay [2] (setting [14]), in [3] (setting [15]), in assay [4] (setting [16]), in assay [5] (setting [17]) and in assay [6] was “−” throughout. Besides, the zone of inhibition entry in assay [8] (setting [19]), in assay [9] (setting [20]), in assay [10], in assay [11] (setting [21]), in assay [12] (setting [22]) and in assay [13] (setting [23]) was “−” in each case. The zone of inhibition at 50 µg/disc in [7] (setting [18]) lay in the range of 2 to 5 mm. In addition, the “antibacterial activity in words” value in assay [7] was “susceptible”.
`CCCCCC(=O)N1CCCCC1` [Compound 11.1]: the zone of inhibition result in [1], in [2] (setting [14]), in [3] (setting [15]), in assay [4] (setting [16]), in [5] (setting [17]) and in assay [6] was “−” in each case. The zone of inhibition entry in assay [8] (setting [19]), in assay [9] (setting [20]), in [10], in assay [11] (setting [21]), in assay [12] (setting [22]) and in [13] (setting [23]) was “−” in each case. Besides, in [7] (setting [18]), the zone of inhibition at 50 µg/disc lay in the range of 5 to 10 mm. Further, the “antibacterial activity in words” value in assay [7] is listed as “susceptible”.
For the compound `C=CCCCCC(C(=O)N1CCCCC1)c1ccccc1` (centres unmarked) [Compound 12.4], the zone of inhibition entry in [1], in [6], in assay [7] (setting [28]), in [11] (setting [21]) and in assay [13] (setting [23]) was “−” each time. The zone of inhibition at 50 µg/disc in assay [2] (setting [24]) was over 10 mm; in [3] (setting [25]), 2 to 5 mm; in [4] (setting [26]) it was 2 to 5 mm; in assay [5] (setting [27]), 2 to 5 mm; in assay [8] (setting [29]), 2 to 5 mm; in assay [9] (setting [30]) it was 5 to 10 mm. Further, the zone of inhibition at 50 µg/disc in assay [10] and in [12] (setting [31]) was 2 to 5 mm in each case.
Take `CCCCC(CCCCC(O)CO)C(=O)N1CCCCC1` (centres unmarked) [Compound 12.6]: the zone of inhibition result in [1], in [2] (setting [14]), in assay [3] (setting [15]), in assay [4] (setting [16]), in assay [5] (setting [17]) and in assay [6] was “−” each time. Besides, the zone of inhibition result in [7] (setting [28]), in [8] (setting [19]), in assay [9] (setting [20]), in assay [10], in assay [11] (setting [21]) and in assay [12] (setting [22]) was “−” each time. Besides, in assay [13] (setting [23]), the zone of inhibition result is on record as “−”.

Values taken from US20160311788A1, “Antifouling Compounds And Use Thereof” (National University of Singapore, priority 2008, published 2016).
